The nature of series [1]: Storage stability of beta-keto calcium salt prodrug of Nabumetone (17 days at 60° C., HPLC). The class given is physicochemical.
A short description of series [2]: Aqueous solubility of sodium beta-keto salt prodrug of Nabumetone (Example 13b). It counts as physicochemical. The procedure:
12.1 mg of the of ethyl-5-(6-methoxy-2-naphthyl)-beta-keto-pentanoate product prepared and purified as in Example 8 was mixed with 25 mL of a 0.5 M aqueous solution NaOH and homogenised on a vortex mixer. […] 15 minutes after preparation of the sample, the sample was transferred to an oil bath set at 37° C. with continuous gentle magnetic stirring, and kept there for 3.5 hours. Crystalline flakes remained in the sample at the end of the 3.5 hours heat-treatment, and the sample was thereafter centrifuged and the clear liquid above the sedimented crystals was analysed by HPLC as described above.
After storage around one hour at room temperature a fraction of the sample was then filtered twice through a 0.2 μm filter (Whatman, 0.2 μm PS) fitted to a syringe to give a clear solution. 200 μL of this filtered solution was transferred, in a tightly closed vessel, to an oil bath at 95° C. and kept at this temperature for about 5 hours to bring about quantitative decarboxylation of the labile, dissolved beta-keto carboxylic salt prodrug derivative of Nabumetone.
The heated sample was then mixed with 35 mL of mobile phase (see Example 1) whereby a few solid crystals (comprising Nabumetone) was seen to not dissolve. In order to assure a correct sampling for HPLC analysis, 5 mL of the 35 mL sample was filtered through a 0.2 μm filter, after the whole 35 mL sample had been pH adjusted to 4.21 by 300 μL 0.1 M HCl+100 μL 1 M HCl, to assure that the pH of the sample was close to the pH of the mobile phase itself (pH 4.30). The filtered solution was thereafter analysed by HPLC and found to contain 0.777 mg Nabumetone per liter. If recalculated to the corresponding concentration of nabumetone equivalents in the form of the beta-keto salt prodrug present in dissolved form in the filtered 200 μl sample that was subsequently heat-treated to form Nabumetone above, the obtained concentration corresponds to a Nabumetone concentration of 136.7 mg Nabumetone per liter in the clear aqueous solution, at room temperature, before the heat-treatment at 95° C.

Series [3] in a line: In-vitro hydrolysis of Nabumetone beta-keto ester pro-prodrug and release of Nabumetone in model blood electrolyte solution at 37° C. The class given is physicochemical. The following applies: for Nabumetone formed in the solution: under-estimated, precipitating Nabumetone compromised sampling.
Series [4] can be described thus: Sustained release of Nabumetone from beta-keto sodium salt prodrug in phosphate buffer at blood pH and 37° C. The class given is physicochemical. The following applies: released from beta-keto salt prodrug, phosphate buffer pH about 7.4, 37° C. The procedure:
20.91 mg of the product synthesised as described in Example 8 (however in this case not purified by the chromatographic step in Example 8) was mixed with 1 ml 0.5 M NaOH at room temperature, whereby a portion of the sample was dissolved. After 30 minutes the mixture was placed in an oven at 37° C., and 10 μl samples was taken at regular intervals, diluted with 1 ml mobile phase (as in Example 1), and analyzed by HPLC, using UV-detection at 240 nm. 3.0 hours after initiation of the saponification reaction, the precursor (retention time 4.6 min) could no longer be detected, and the precursor peak was replaced by a peak from the intermediary beta-keto salt prodrug (retention time 2.3 minutes). At this point in time, a solution of 9 ml H2O and 0.0762 g NaH2PO4 was added to the sample, in order to create a NaH2PO4/Na2HPO4 pH buffer by neutralization of the NaOH remaining in the sample. […] The sample was again placed in the oven at 37° C. and the decarboxylation of the beta-keto salt in solution, gradually giving the commercially available drug Nabumetone, was followed by HPLC by taking 100 μl samples at regular intervals and diluting them with 1 ml mobile phase (see Example 1 above) before injection on the HPLC. It can be seen from the data that Nabumetone was continuously released into the solution via the spontaneous, non-enzymatic decarboxylation of the dissolved prodrug sodium salt, over a period of more than 120 hours. The half-life of the prodrug was estimated to be about 70 hours in this medium and under the conditions used.

For series [5] the following is noted: water at 25° C.; Sepassi et al, 2007; cited from earlier work.
A short description of series [6]: Storage stability of benzoylacetate salts and their corresponding acid (HPLC or gravimetric). It counts as physicochemical. The following applies: solid. The procedure: A 0.2 M solution of ethyl benzoyl acetate (90%, Sigma Aldrich) in 0.5 M NaOH (aq) was prepared at room temperature and stirred for typically 5-24 hours, still at room temperature. After this time a major part of the ethyl benzoyl acetate had been transformed into dissolved sodium benzoyl acetate, as evidenced by monitoring the reaction by analysis of samples by reversed phase HPLC. Some acetophenone and remaining ethyl benzoyl acetate were typically present in the samples, but in minor amounts. The method employed a C8 column with an inner diameter of 150×4.6 mm and 5 micron particles. The mobile phase consisted of 400 ml deionized water+600 ml acetonitrile+0.196 g H3PO4 (85%)+2.760 g NaH2PO4*H2O. The flow rate was set to 1.0 mL/min and UV detection at 254 nm was employed for analysis of the compounds ethylbenzoylacetate (precursor), benzoylacetate (model prodrug) and acetophenone (model drug).
The storage stability of the sodium and calcium salts of benzoylacetate, and of benzoylacetic acid, in solid form, and in aqueous solutions, was investigated by storage of samples under various conditions (see Table 3a above) with regular HPLC- or gravimetric measurements of the samples from time to time. Samples denoted “neutralized” were prepared from a solution prepared as described in Example 1, which was neutralized with diluted HCl after performing the steps in Example 1.
From the data it can be concluded that the best storage stability at room temperature is obtained by storage in the form of the calcium salt.

Series [7] in a line: Aqueous solubility of benzoylacetate salts (Example 13a). Conditions: water.
Series [8] in a line: Re-activation of storage stabile beta-keto calcium salt by dissolution, release of ketone (odour). It counts as physicochemical. The procedure: 25 mg of the precipitated and dried calcium salt prepared in Example 2, was, after being subjected to the storage stability test of Example 4, dissolved in 5.66 g of tap water and boiled for two minutes.
The subject of the next series is rat. Conditions: cited from earlier work.

As a reminder, the Solubility is the concentration that dissolves in the medium under given conditions. A word on the LD50: it is the dose at which mortality reaches 50%.

Converted amounts (≈) assume the structure as drawn. “And” between values parts separate entries of the source, which are not always exact repeats. Identical values can stand only once. Like-named read-outs stand apart in the source and are kept apart here. Marks after values point to notes of the source that are not given here.

For `COc1ccc2cc(CCC(C)=O)ccc2c1` [Nabumetone, 4-(6-methoxy-2-naphthyl)-2-butanone], in series [1] (408 h), the “Relative amount of calcium salt beta-keto prodrug/Nabumetone remaining after 17 days at 60° C.” value turned out to be 45.3%. In addition, the “Obtained value (area units)” value in series [1] (dry calcium salt after 17 days at 60° C., redissolved in water, HPLC) came out at 1315 area units. Moreover, the “Expected value if no breakdown occured during storage and a 100% yield was obtained upon precipitation with calcium chloride” value in series [1] (recalculated for dilution) was 90 area units. In series [2] (200 μL filtered prodrug solution decarboxylated at 95° C. for about 5 hours, mixed with 35 mL mobile phase), the “Nabumetone found in filtered solution by HPLC” value was determined as 0.777 mg Nabumetone per liter. Also, in [2] (clear liquid after 3.5 h at 37° C. in 0.5 M NaOH, 200 μL diluted with 5.0 ml mobile phase), the “Area at retention time 3.8 minutes characteristic for detection of Nabumetone” value is listed as 59 arbitrary units. The “storage time after which sedimenting crystalline flakes of Nabumetone were detected in the sample” value in [3] (model blood solutes solution) is 100 to 150 h. In addition, in series [3] (model blood solutes solution with surface active beta-keto anion prodrug), the “Nabumetone staying in a stabile dispersion (theoretical concentration)” value was 40 mg/L. Besides, the “Nabumetone formed in the solution” value in series [3] (model blood solutes solution, Time 96.8 hours) is “(2656)* mg/L”; in series [3] (model blood solutes solution, Time 121.25 hours), “(2715)* mg/L”; in [3] (model blood solutes solution, Time 145.0 hours) it was “(2423)* mg/L”; in series [3] (model blood solutes solution, Time 172.6 hours) it was “(3508)* mg/L”; in series [3] (model blood solutes solution, Time 197.3 hours), “(3240)* mg/L”; in [3] (model blood solutes solution, Time 218.4 hours), “(3859)* mg/L”. Moreover, the “Nabumetone formed in the solution” value in series [3] (model blood solutes solution, Time 293.7 hours) was “(3013)* mg/L”. For the same compound, the “Nabumetone (HPLC area @ 3.8 min)” value in [4] (3.25 h after initiation of saponification) was 0; in [4] (5.1 h after initiation of saponification), 0; in series [4] (21.45 h after initiation of saponification), 5265; in series [4] (24.25 h after initiation of saponification), 5388 and 5496; in series [4] (28.15 h after initiation of saponification) it was 5804; in [4] (45.4 h after initiation of saponification), 10083. Further, the “Nabumetone (HPLC area @ 3.8 min)” value in [4] (50 h after initiation of saponification) was 11400; in [4] (78 h after initiation of saponification), 13359; in series [4] (117 h after initiation of saponification), 18156; in [4] (194 h after initiation of saponification) it was 22484. For the same compound, the Solubility in [5] is on record as 4.7 mg/L (≈ 20.6 µM).
Consider `O=C([O-])CC(=O)c1ccccc1.O=C([O-])CC(=O)c1ccccc1.[Ca+2]` [calcium benzoylacetate, Ca(benzoylacetate)2], for which the “Absolute amount of calcium benzoylacetate in sample (wt %, from HPLC)” value in series [6] (1 days at room T and typical indoor humidity, 0 days at 50% RH and room T, 0 days at 60° C. in oven) was found to be 35.9 wt %; in series [6] (1.9 days at room T and typical indoor humidity, 0 days at 50% RH and room T, 0 days at 60° C. in oven), 34.2 wt %; in series [6] (8 days at room T and typical indoor humidity, 0 days at 50% RH and room T, 0 days at 60° C. in oven) it was 43.0 wt %; in series [6] (9 days at room T and typical indoor humidity, 0 days at 50% RH and room T, 103 days at 60° C. in oven), 45.6 wt %; in series [6] (9 days at room T and typical indoor humidity, 103 days at 50% RH and room T, 0 days at 60° C. in oven), 32.1 wt %; in series [6] (28 days at room T and typical indoor humidity, 0 days at 50% RH and room T, 0 days at 60° C. in oven), 33.1 wt %. In series [6] (112 days at room T and typical indoor humidity, 0 days at 50% RH and room T, 0 days at 60° C. in oven), the “Absolute amount of calcium benzoylacetate in sample (wt %, from HPLC)” value is given as 40.4 wt %. In addition, the Solubility in series [7] (as Ca(benzoylacetate)2, corrected for 40 wt % content) is given as 69 mM. Further, in series [7] (benzoylacetate in the solution, corrected for 40 wt % content), the “Solubility (mM, as acetophenone equivalents)” value amounted to 138 mM. For the same compound, the solubility limit in [7] (dry calcium salt sample containing only 40 wt % calcium benzoyl acetate) was about 63 mg/mL. Also, the “release of acetophenone (odour)” value in series [8] (25 mg dissolved in 5.66 g tap water and boiled for two minutes, after storage stability test) is recorded as “strong odour of acetophenone”; in [8] (similar amount kept in dry form in an identical beaker), “did not give rise to any acetophenone odour”.
As for `CCN` [ethyl amine], the LD50 in the series with rat is on record as 280 mg/kg.
Take `CN` [methyl amine]: in the series with rat, the LD50 is listed as 100 mg/kg.

The values above are taken from patent publication US20120065179A1, “PRODRUG COMPRISING BETA-KETO CARBOXYLIC ACID, BETA-KETO CARBOXYLIC ACID SALT OR BETA-KETO CARBOXYLIC ACID ESTER FOR DRUG DELIVERY” (YKI, Ytemiska Institutet AB, priority 2009, published 2012).
